The test system of one assay is PDK-1. Kind of assay: PDK-1 immunoprecipitation kinase assay from ICAM-2 cells. In kind it is biochemical. The note with it: compounds 10 μM, 1 hr. The source says: A) ICAM-2, interacts with α-actinin and ezrin. ICAM-2, ICAM2-ΔC or control cells were immunoprecipiated for ICAM-2, and immunoblotted for either a-actinin or ezrin. Control lysates were not subjected to immunoprecipitation and reflect positive controls for detected interacting protein. […] ICAM-2, and control cells were serum starved (48, hrs), treated with LY294002, (10, μM, 24, hrs), or cultured in growth media, and prepared for intracellular detection of phosphatidyinositol 3,4,5, triphosphate detection by flow cytometry. […] Phosphotransfer of ATP to peptide substrate was detected by scintillation counting and presented as counts per minute CPM. […]
PDK-1 activity was determined by a PDK-1 immunoprecipiation kinase assay kit (Upstate Biotecnology, Lake Placid, N.Y.) as recommended by manufacturer. In brief, PDK-1 was immunoprecipitated from 1×10^6 treated cells, incubated with inactivated SGK enzyme, and detection of (γ-^32P) ATP incorporation to a SGK peptide substrate was measured by scintillation counting. PI3K activity was detected by developed PI3K FACS based assay (see below). AKT activity was detected by immunoprecipitation of AKT1 from cells and used in a kinase assay with GSK3 fusion protein (CST). […] Kinase reaction was terminated with SDS sample buffer boiled for 5 min, and phosphorylation state of GS3K was detected by immunoblotting and visualized using ECL detection (Amersham). […]

In a further assay the test system is Jurkat T cells. Briefly: anti-Fas induced apoptosis in ICAM-2 crosslinked Jurkat cells, annexin-V binding assay. In kind it is cell-based, human. The note with it: inhibitor 10 μM 1 hour, anti-Fas 50 ng/ml 8 hours. On the procedure: A) ICAM-2, crosslinking induced AKT activity in Jurkat T cells and subsequent phosphorylation of GSK3, FKHR, and AFX as a function of time. Serum starved Jurkat T cells were incubated with either isotype control or anti-human ICAM-2, (10, μg/ml) for the indicated times. AKT kinase activity was determined as described. Immunoblot analysis verified AKT dual phosphorylation, FKHR and GSK3 phosphorylation, and BAD phosphorylation as a function of ICAM-2, crosslinking. B) ICAM-2 crosslinking induces AKT activity in BaF3, pre-B cells. […] ICAM-2, was crosslinked on 106, Jurkat T cells using an ICAM-2, mAb (10, μg/ml) 30, minutes prior to treatment with staurosporine (+) or DMSO vehicle (−). Apoptosis was determined by flow cytometry using annexin-V binding assay. […] Cells were assessed for apoptosis by annexin-V binding assay. […]
Apoptosis was determined either by counting pyknotic nuclei, annexin-V binding by flow cytometry, or TUNEL BrdU staining by flow cytometry as indicated. Apoptosis was induced either by staurosporine (1 μm), treatment with anti-mouse Fas (5 μq/ml Santa Cruz Biotechnology (SCB), anti-human Fas ([…]) as indicated in appropriate experiment, IL-3 withdrawal-(24 hrs) or as indicated. For pyknolic nuclei count, NIH3T3 cells were grown on glass coverslips and assayed for apoptosis. Suspension cells were analyzed by nuclear staining with 25 μM acridine orange/25 μm ethidium bromide or 5 μg/ml Hoechst 33342 (Molecular Probes, Eugene, Oreg.). Apoptosis was identified by the presence of characteristic pyknotic nuclei as described (Jacobson and Raff, 1995). At least 5 individual fields were photographed and counted using a Zeiss axioscope fluorescence microscope. […] The cells were trypsinized and viable cells counted following trypan blue staining. Untreated cells were counted at the time of treatment. % survival represents (number of viable cells post-treatment)/(number of viable cells pretreatment). […] Flow cytometry analysis was performed on a BD FACSCalibur machine with CELLQuest and analyzed using FlowJo software (Tree Star).

The next assay concerns ezrin. Kind of assay: phosphotyrosine-protein based elisa for ezrin tyrosine phosphorylation upon ICAM-2 ligation. In kind it is cell-based, human. As to conditions: Jurkat cells. As to the method: A) Expression levels of ICAM-2, vary across cell lines of different origins. Quantitative flow cytometry analysis was performed to assess the number of ICAM-2 surface molecules across transformed and untransformed fibroblasts, lymphocytes of T-cell and different B-cell differentiation states and myeloid lineages (see Material and Methods for elaboration). The number of surface molecules/cell is expressed as the mean (bar)+/−SD of triplicate experiments. B) Crosslinking of endogenous ICAM-2, induces ezrin tyrosine phosphorylation and enhanced ICAM-2, interaction. Jurkat cells were crosslinked for ICAM-2 using monoclonal antibody for the indicated times and subjected to immunoprecipitation/immunoblotting as indicated. C) Inhibition of ezrin phosphotyrosine by chemical inhibitors of src and Rho-dependent kinases. D) Ezrin phosphorylation and enhanced interaction with the p85, subunit of PI3K as a function of ICAM-2. Determined as described above. E) PDK-1, activity as a function of ICAM-2, ligation, as described above). F) PI3K and AKT localize to the membrane as a function of ICAM-2, ligation. Membrane/cytosolic fractionation was performed on ICAM-2, ligated Jurkat cells as a function of time and subjected to immunoblotting for PI3K and AKT.
In order to identify upstream kineses capable of tyrosine phosphorylating ezrin as a function of ICAM-2 ligation, we developed a phosphotyrosine-protein based elisa to screen for the inhibition of ezrin tyrosine phosphorylation in vivo by various known inhibitors of protein kineses (Perez and Nolan, manuscript in preparation). […] Given the design of the screen to detect tyrosine residue phosphorylation, we speculate that activation of Rho-dependent processes may be a prerequisite for ezrin to be tyrosine phosphorylated by src (elaborated below).

Another assay relates to CD19+ human B cells. The note with it: 10 μM, 30 minutes.

Procedure for CD19+ human B cells: Apoptosis was measured by annexin-V binding detected by flow cytometry, and gated for CD19+, cells. […] Apoptosis was measured by annexin-V binding assay.
Antibody cross-linking experiments were performed using mAbs to anti-ICAM-1, anti-ICAM-2, anti-ICAM-3, anti-CD43, or anti-CD44 that recognizes the N-terminal region (extracellular domain) at 10 μg/ml. Spin dialysis (Biorad) was used for buffer exchange of azide containing antibodies (0.01%) to phosphate buffered saline buffer pH 7.4. Anti-mouse IgG (Sigma) was used as a control antibody in cross-linking experiments. 1×10^6 Jurkat, 1×10^6 BaF3, or 1×10^7 PBMC cells were serum starved for 4 hours respectively (except PBMC). Cells were incubated with either mAb (10 μg/ml) or mouse IgG (10 μg/ml) at 37° C. for the indicated time. Time points began post serum starvation to attenuate most of the signaling pathways or as indicated. […] Cells extracts were taken and subjected to either immunoprecipitation or immunoblotting were appropriate. Primary cells were subjected to apoptotic treatment followed by preparation for flow cytometry. GTPγS was made cell permeant by pre-incubating compound with Fugene (Roche Biochemicals) in a 1:4 molar ratio for 30 minutes at 25° C. prior to being applied to cells.

Regarding `C[C@@H](N)[C@H]1CC[C@H](C(=O)Nc2ccncc2)CC1` [Y-27632], the “PDK-1 activity in ICAM-2 cells” value with PDK-1 is given as “partially inhibited”. In addition, the “ICAM-2 crosslinking protection against Fas induced apoptosis” value in the assay on Jurkat T cells was “abrogated”. Also, the “tyrosine phosphorylation of ezrin” value in the assay with ezrin was “inhibit the tyrosine phosphorylation of ezrin”; in the assay on ezrin (listed as Y-27362) it was “abolished tyrosine phosphorylation of ezrin”. Further, in the assay with CD19+ human B cells, the “ICAM-2 anti-apoptotic effect in CD19+ human B cells” value is reported as “abrogated”.

Source of the values: patent publication US8962263B2, “Methods and compositions for detecting the activation state of multiple proteins in single cells” (The Board of Trustees of the Leland Stanford Junior …, priority 2001, dated 2015).
